From patent US12612384B2, “Heterocyclic CYP4A inhibitor compounds and compositions thereof” (MBD CO., LTD., priority 2021, dated 2026)

Target: T1, CYP4A (Homo sapiens, UniProt Q02928)
T1 construct: purchased; host or cells: bacterial membranes ('bactosome')
T1 sequence (Q02928 5-519): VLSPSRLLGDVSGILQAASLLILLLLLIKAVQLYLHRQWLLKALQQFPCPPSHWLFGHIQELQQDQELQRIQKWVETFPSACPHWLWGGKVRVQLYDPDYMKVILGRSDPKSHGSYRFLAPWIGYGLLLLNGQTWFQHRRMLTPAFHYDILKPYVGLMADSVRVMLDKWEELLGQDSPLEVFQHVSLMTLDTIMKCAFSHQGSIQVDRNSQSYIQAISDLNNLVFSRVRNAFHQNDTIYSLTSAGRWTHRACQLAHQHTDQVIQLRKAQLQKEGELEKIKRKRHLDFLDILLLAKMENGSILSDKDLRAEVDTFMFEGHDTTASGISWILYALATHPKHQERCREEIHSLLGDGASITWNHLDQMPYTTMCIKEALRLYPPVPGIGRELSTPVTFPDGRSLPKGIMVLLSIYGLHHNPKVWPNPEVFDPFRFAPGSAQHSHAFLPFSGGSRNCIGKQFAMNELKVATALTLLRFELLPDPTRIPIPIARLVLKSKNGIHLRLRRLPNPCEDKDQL
Assay: CYP4A enzyme assay (luminescence, Luciferin-ME)
Type: biochemical
Conditions: Compound concentration 5 μM; 50%-70%; read-out: % Inhibition 50%-70%
Method in brief: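 Compounds (5 μM) were preincubated 15 min at room temperature with CYP4A bactosomes in 100 mM KPO4, 0.1% BSA, 1 mM DTT. Reaction ran 30 min at room temperature after adding 5 mM Luciferin-ME and NADPH regeneration system. Luminescence after 15 min with detection reagent; inhibition judged by comparing well signals.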

| inhibition at 5 µM [%] | SMILES |
| --- | --- |
| 50 to 70 | O=C(C1CCN(Cc2ccc([N+](=O)[O-])cc2)C1)N1CCN(c2ccnc3ccccc23)CC1 (stereo not drawn) [Example 153, (1-(4-nitrobenzyl)pyrrolidin-3-yl)(4-(quinolin-4-yl)piperazin-1-yl)methanone] |
| 50 to 70 | Cn1cnnc1CN1CC[C@H](C(=O)N2CCN(c3ccnc4cc(F)ccc34)CC2)C1 [Example 154, (S)-(4-(7-fluoroquinolin-4-yl)piperazin-1-yl)(1-((4-methyl-4H-1,2,4-triazol-3-yl)methyl)pyrrolidin-3-yl)methanone] |

Same assay, conditions: Compound concentration 5 μM; 70%-90%; read-out: % Inhibition 70%-90%

| inhibition at 5 µM [%] | SMILES |
| --- | --- |
| 70 to 90 | NCCn1ccnc1S(=O)(=O)N1CC[C@H](C(=O)N2CCN(c3ccnc4cc(F)ccc34)CC2)C1 [Example 150, (S)-(1-((1-(2-aminoethyl)-1H-imidazol-2-yl)sulfonyl)pyrrolidin-3-yl)(4-(7-fluoroquinolin-4-yl)piperazin-1-yl)methanone] |
| 70 to 90 | Cc1nn(C)c(C)c1S(=O)(=O)N1CC[C@H](C(=O)N2CCN(c3ccnc4ccccc34)CC2)C1 [Example 151, (S)-(4-(quinolin-4-yl)piperazin-1-yl)(1-((1,3,5-trimethyl-1H-pyrazol-4-yl)sulfonyl)pyrrolidin-3-yl)methanone] |
| 70 to 90 | Cc1nn(C)c(C)c1S(=O)(=O)N1CC[C@@H](C(=O)N2CCN(c3ccnc4ccccc34)CC2)C1 [Example 152, (R)-(4-(quinolin-4-yl)piperazin-1-yl)(1-((1,3,5-trimethyl-1H-pyrazol-4-yl)sulfonyl)pyrrolidin-3-yl)methanone] |
| 70 to 90 | O=C(C1CCN(Cc2nnn[nH]2)C1)N1CCN(c2ccnc3cc(F)ccc23)CC1 (stereo not drawn) [Example 155, (1-((1H-tetrazol-5-yl)methyl)pyrrolidin-3-yl)(4-(7-fluoroquinolin-4-yl)piperazin-1-yl)methanone] |
| 70 to 90 | Cc1ccc2c(N3CCN(C(=O)[C@H]4CCN(S(=O)(=O)c5ncn[nH]5)C4)CC3)ccnc2c1 [Example 163, (S)-(1-((1H-1,2,4-triazol-5-yl)sulfonyl)pyrrolidin-3-yl)(4-(7-methylquinolin-4-yl)piperazin-1-yl)methanone] |
| 70 to 90 | O=C([C@H]1CCN(S(=O)(=O)c2ncn[nH]2)C1)N1CCN(c2cc(C(F)(F)F)nc3ccccc23)CC1 [Example 167, (S)-(1-((1H-1,2,4-triazol-5-yl)sulfonyl)pyrrolidin-3-yl)(4-(2-(trifluoromethyl)quinolin-4-yl)piperazin-1-yl)methanone] |

Same assay, conditions: Compound concentration 5 μM; Greater than 90%; read-out: % Inhibition Greater than 90%

| inhibition at 5 µM [%] | SMILES |
| --- | --- |
| > 90 | COCCn1ccnc1S(=O)(=O)N1CC[C@H](C(=O)N2CCN(c3ccnc4cc(F)ccc34)CC2)C1 [Example 149, (S)-(4-(7-fluoroquinolin-4-yl)piperazin-1-yl)(1-((1-(2-methoxyethyl)-1H-imidazol-2-yl)sulfonyl)pyrrolidin-3-yl)methanone] |
| > 90 | O=C([C@H]1CCN(S(=O)(=O)c2cccnc2)C1)N1CCN(c2ccnc3cc(F)ccc23)CC1 [Example 156, (S)-(4-(7-fluoroquinolin-4-yl)piperazin-1-yl)(1-(pyridin-3-ylsulfonyl)pyrrolidin-3-yl)methanone] |
| > 90 | O=C([C@H]1CCN(S(=O)(=O)c2ccccn2)C1)N1CCN(c2ccnc3cc(F)ccc23)CC1 [Example 157, (S)-(4-(7-fluoroquinolin-4-yl)piperazin-1-yl)(1-(pyridin-2-ylsulfonyl)pyrrolidin-3-yl)methanone] |
| > 90 | O=C([C@H]1CCN(S(=O)(=O)c2ccc([N+](=O)[O-])cc2)C1)N1CCN(c2ccnc3cc(F)ccc23)CC1 [Example 158, (S)-(4-(7-fluoroquinolin-4-yl)piperazin-1-yl)(1-((4-nitrophenyl)sulfonyl)pyrrolidin-3-yl)methanone] |
| > 90 | O=C([C@H]1CCN(S(=O)(=O)c2ncc[nH]2)C1)N1CCN(c2ccnc3ccc(F)cc23)CC1 [Example 159, (S)-(1-((1H-imidazol-2-yl)sulfonyl)pyrrolidin-3-yl)(4-(6-fluoroquinolin-4-yl)piperazin-1-yl)methanone] |
| > 90 | O=C([C@H]1CCN(S(=O)(=O)c2nccn2CCO)C1)N1CCN(c2ccnc3ccc(F)cc23)CC1 [Example 160, (S)-(4-(6-fluoroquinolin-4-yl)piperazin-1-yl)(1-((1-(2-hydroxyethyl)-1H-imidazol-2-yl)sulfonyl)pyrrolidin-3-yl)methanone] |
| > 90 | O=C(c1ncn[nH]1)N1CC[C@H](C(=O)N2CCN(c3ccnc4cc(F)ccc34)CC2)C1 [Example 161, (S)-(1-(4H-1,2,4-triazole-3-carbonyl)pyrrolidin-3-yl)(4-(7-fluoroquinolin-4-yl)piperazin-1-yl)methanone] |
| > 90 | O=C(c1nn[nH]n1)N1CC[C@H](C(=O)N2CCN(c3ccnc4cc(F)ccc34)CC2)C1 [Example 162, (S)-(1-(2H-tetrazole-5-carbonyl)pyrrolidin-3-yl)(4-(7-fluoroquinolin-4-yl)piperazin-1-yl)methanone] |
| > 90 | O=C([C@H]1CCN(S(=O)(=O)c2ncn[nH]2)C1)N1CCN(c2ccnc3cc(O)ccc23)CC1 [Example 164, (S)-(1-((1H-1,2,4-triazol-5-yl)sulfonyl)pyrrolidin-3-yl)(4-(7-hydroxyquinolin-4-yl)piperazin-1-yl)methanone] |
| > 90 | COc1ccc2c(N3CCN(C(=O)[C@H]4CCN(S(=O)(=O)c5ncn[nH]5)C4)CC3)ccnc2c1 [Example 165, (S)-(1-((1H-1,2,4-triazol-5-yl)sulfonyl)pyrrolidin-3-yl)(4-(7-methoxyquinolin-4-yl)piperazin-1-yl)methanone] |
| > 90 | Cc1nc(S(=O)(=O)N2CC[C@H](C(=O)N3CCN(c4ccnc5cc(F)ccc45)CC3)C2)n[nH]1 [Example 166, (S)-(4-(7-fluoroquinolin-4-yl)piperazin-1-yl)(1-((5-methyl-1H-1,2,4-triazol-3-yl)sulfonyl)pyrrolidin-3-yl)methanone] |
| > 90 | O=C([C@H]1CCN(S(=O)(=O)c2ncn[nH]2)C1)N1CCN(c2ccnc3cc(F)c(F)cc23)CC1 [Example 168, (S)-(1-((1H-1,2,4-triazol-5-yl)sulfonyl)pyrrolidin-3-yl)(4-(6,7-difluoroquinolin-4-yl)piperazin-1-yl)methanone] |
| > 90 | O=C([C@H]1CCN(S(=O)(=O)c2ncc[nH]2)C1)N1CCN(c2ccnc3cc(F)c(F)cc23)CC1 [Example 169, (S)-(1-((1H-imidazol-2-yl)sulfonyl)pyrrolidin-3-yl)(4-(6,7-difluoroquinolin-4-yl)piperazin-1-yl)methanone] |
